Laboratory results as given in ChEMBL document CHEMBL1201862, “PubChem BioAssay data set” (2004).
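Growth conditions: 96-well plates. Treatment: test compound, 48 hours, 5 concentrations. Analysis: linear interpolation between bracketing concentrations; unreached endpoints set to highest concentration. Abbreviation: GI50, concentration required for 50% inhibition of growth.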 Calls of active or inactive are those of the source. Cut-off read from the data, not from the text of the source: active = GI50 up to about 1.1 µM and inactive = higher.

How the values were obtained:
Experiment in all cases: growth of human tumour cells (NCI), 48 h
A498 = test system: A498
ACHN = test system: ACHN
CAKI-1 = test system: CAKI-1
DU-145 = test system: DU-145
Hs-578T = test system: Hs-578T
MCF7 = test system: MCF7
MDA-MB-231 = test system: MDA-MB-231
Malme-3M = test system: Malme-3M
NCI-H226 = test system: NCI-H226
NCI/ADR-RES = test system: NCI/ADR-RES
SNB-75 = test system: SNB-75
SR = test system: SR
T47D = test system: T47D
DLD-1 = test system: DLD-1
DMS-114 = test system: DMS-114
HOP-92 = test system: HOP-92
LXFL 529 = test system: LXFL 529
M19-MEL = test system: M19-MEL
XF498 = test system: XF498
SNB-78 = test system: SNB-78

Measured: GI50

O=C(O)Cc1ccc(N2N=C(c3ccccc3)CC2=O)cc1
inactive: A498 > 100 µM | ACHN > 100 µM | CAKI-1 > 100 µM | DU-145 > 100 µM | Hs-578T > 100 µM | MCF7 > 100 µM | MDA-MB-231 > 100 µM | Malme-3M 18.6 µM | NCI-H226 > 100 µM | NCI/ADR-RES > 100 µM | SNB-75 > 100 µM | SR > 100 µM | T47D > 100 µM

O=C1C(Cl)N(c2ccc([N+](=O)[O-])cc2)C1c1c[nH]c2ccccc12 (configuration not stated)
inactive: DLD-1 38.1 µM | DMS-114 38 µM | HOP-92 83 µM | LXFL 529 36.2 µM | M19-MEL > 100 µM | Malme-3M 42.1 µM | SNB-75 > 100 µM | SR 19.5 µM | XF498 > 100 µM

CCCCSCCC(N)P(=O)(O)O (configuration not stated)
inactive: ACHN > 100 µM | CAKI-1 > 100 µM | DU-145 > 100 µM | HOP-92 > 100 µM | Hs-578T > 100 µM | MCF7 > 100 µM | MDA-MB-231 > 100 µM | NCI-H226 > 100 µM | NCI/ADR-RES > 100 µM | SNB-75 > 100 µM | SR > 100 µM | T47D > 100 µM

Cc1nc2c(n1C)C(=O)c1nc(CBr)[nH]c(=O)c1C2=O
inactive: A498 > 100 µM | ACHN > 100 µM | DLD-1 > 100 µM | DMS-114 75.9 µM | HOP-92 > 100 µM | LXFL 529 > 100 µM | M19-MEL > 100 µM | XF498 > 10 µM

COc1cccc(CC2Cc3ccccc3CC(=O)N2)c1 (configuration not stated)
inactive: ACHN 76.2 µM | CAKI-1 16.6 µM | DU-145 > 100 µM | HOP-92 24.1 µM | Hs-578T 21.4 µM | MCF7 30.4 µM | MDA-MB-231 10 µM | NCI-H226 20.8 µM | NCI/ADR-RES 20 µM | SNB-75 > 100 µM | SR > 100 µM | T47D 41.5 µM

COc1cccc(NC(=O)CC(=O)NN2C(=O)/C(=C/c3ccc(N(CCC#N)CCC#N)cc3)N=C2c2cc([N+](=O)[O-])ccc2Cl)c1
inactive: ACHN > 100 µM | CAKI-1 > 100 µM | DLD-1 60.3 µM | DMS-114 31 µM | HOP-92 > 100 µM | LXFL 529 40.7 µM | M19-MEL > 100 µM | Malme-3M 32.7 µM | NCI-H226 13.6 µM | SNB-78 > 100 µM | SR 22.4 µM | XF498 57.7 µM

CC(=O)Oc1ccccc1[C@H]1CC(=O)C[C@H](c2ccccc2OC(C)=O)C12C(=O)c1ccccc1C2=O
inactive: A498 25.6 µM | CAKI-1 20.9 µM | DU-145 35.4 µM | HOP-92 47.9 µM | Hs-578T 27.7 µM | MDA-MB-231 27.1 µM | Malme-3M 40 µM | NCI-H226 27.6 µM | NCI/ADR-RES 29.2 µM | SNB-75 17.9 µM | SR 79.4 µM | T47D 40.2 µM

Cc1[nH]c(=O)[nH]c(=O)c1/C=C/C(=O)NC(CO)CC(C)C (configuration not stated)
inactive: A498 > 375 µM | CAKI-1 146 µM | DLD-1 > 375 µM | DMS-114 260 µM | HOP-92 17.5 µM | M19-MEL 322 µM | MCF7 228 µM | Malme-3M 233 µM | NCI-H226 > 375 µM | NCI/ADR-RES > 375 µM | SNB-75 226 µM | SNB-78 373 µM | XF498 60 µM

COc1ccc(CCn2nccc2C)cc1
inactive: ACHN > 100 µM | CAKI-1 > 100 µM | DU-145 > 100 µM | Hs-578T > 100 µM | MCF7 > 100 µM | MDA-MB-231 > 100 µM | Malme-3M > 100 µM | NCI/ADR-RES > 100 µM | SNB-75 50.7 µM | SR > 100 µM | T47D 74.1 µM

COc1ccccc1NC(=O)C(=O)C(C(=O)c1ccccc1F)C1OC(=O)c2ccccc21 (configuration not stated)
inactive: A498 59.8 µM | ACHN 39.4 µM | CAKI-1 34.5 µM | DLD-1 33.3 µM | DMS-114 23.1 µM | HOP-92 42.6 µM | LXFL 529 24.9 µM | M19-MEL 15.8 µM | NCI-H226 15.6 µM | SNB-75 21.9 µM | SNB-78 25.5 µM | SR 22.2 µM | XF498 14.1 µM

CC1(Cl)CC2C(CC1Sc1nnnn1-c1ccccc1)C2(C)C (configuration not stated)
inactive: ACHN 75.5 µM | DLD-1 > 100 µM | DMS-114 45.9 µM | HOP-92 58.6 µM | LXFL 529 60.3 µM | M19-MEL > 100 µM | NCI-H226 > 100 µM | SNB-78 92.7 µM | SR 29.6 µM

Cc1ccc(SSCCCCCS(=O)O)cc1
inactive: A498 19 µM | ACHN 57.7 µM | DLD-1 33.9 µM | DMS-114 21 µM | LXFL 529 14.6 µM | M19-MEL 37.6 µM | Malme-3M 18.3 µM | SNB-75 29.6 µM | SNB-78 25.4 µM | SR 4.62 µM | XF498 18.6 µM

CSCC[C@@H](NC(=O)[C@H](CC(C)C)NC(=O)C(Cc1cnc[nH]1)NC(=O)CNC(=O)[C@@H](NC(=O)[C@H](C)NC(=O)[C@H](Cc1cn(C=O)c2ccccc12)NC(=O)[C@H](CCC(N)=O)NC(=O)[C@@H](N)CC(N)=O)C(C)C)C(N)=O (some centres not stated)
inactive: A498 > 100 µM | DLD-1 > 100 µM | DMS-114 > 100 µM | M19-MEL > 100 µM | MCF7 > 100 µM | Malme-3M > 100 µM | NCI-H226 > 100 µM | NCI/ADR-RES > 100 µM | SNB-75 > 100 µM | SNB-78 > 100 µM | XF498 > 100 µM

NCCCCCC(CCN)SCC1OC(n2cnc3c(N)ncnc32)C(O)C1O (configuration not stated)
inactive: A498 > 1500 µM | CAKI-1 411 µM | DLD-1 > 1500 µM | DMS-114 339 µM | HOP-92 > 618 µM | M19-MEL > 843 µM | MCF7 > 1500 µM | Malme-3M > 1280 µM | NCI-H226 589 µM | NCI/ADR-RES > 948 µM | SNB-75 > 1500 µM | SNB-78 > 1020 µM | XF498 > 15 µM

COc1ccccc1-c1cc(O)c2cc(C)cnc2n1
inactive: A498 24.9 µM | ACHN 68.7 µM | CAKI-1 19.3 µM | DU-145 47.9 µM | HOP-92 36.8 µM | Hs-578T 43.4 µM | MCF7 47.5 µM | MDA-MB-231 67.3 µM | Malme-3M 24.7 µM | NCI-H226 52.2 µM | NCI/ADR-RES 15 µM | SR > 100 µM | T47D 63.4 µM
